# Assay results reported in PubChem BioAssay AID977628 (Broad Institute, 2014).
# Inconclusive results are not listed. Activity calls are given as the source filed them.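 How the source made its calls: active means compound lowering the normal-ribosome reporter at least twice as much as the humanized-ribosome reporter, growth loss under a set limit; inconclusive means no clear call, values can overlap the other calls; inactive means the rest.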
# System: E. coli WT GFP strain growth, fluorescence, 24 h
# Test: E. coli growth inhibition, wild-type GFP versus h24 humanized RFP strain, dose response, h24 mutant RFP vs wild-type GFP, cherry-pick (AID 977628)
row,Structure (SMILES),AC50
1,CCOC(=O)Cc1csc(NC(=O)c2cc3ccccc3o2)n1,> 100 µM (inactive)
2,COc1cccc(CNC(=O)CCSCc2ccccc2F)c1,> 100 µM (inactive)
3,Cc1nc(Sc2ccccc2)c(C#N)c(C)c1[N+](=O)[O-],> 100 µM (inactive)
4,O=C(C[n+]1cc(-c2ccc(Cl)c(Cl)c2)n2c1CCC2)OCc1ccccc1,> 100 µM (inactive)
5,COc1cccc(C(NC(C)=O)c2nc(-c3ccccc3OC)cs2)c1 (centres undefined),> 100 µM (inactive)
6,Fc1cccc(Cc2c(-c3ccco3)nc3c4ccccc4ccn23)c1,> 100 µM (inactive)
7,Cc1cccc(NC(=O)c2sc3nc(-c4ccccc4)cn3c2C)n1,> 100 µM (inactive)
8,COc1ccccc1-n1c(Cc2ccccc2)nc2ccccc2c1=O,> 100 µM (inactive)
9,O=C(O)c1cc2ccc3ccccc3c2[nH]1,> 100 µM (inactive)
10,COc1ccc2nc(SCC(=O)Nc3ccccc3)[nH]c2c1,> 100 µM (inactive)
11,O=C(c1ccccc1)N(c1ccccc1)c1nccc2ccccc12,> 100 µM (inactive)
12,COc1cccc(NC(=O)C2CCC(CNS(=O)(=O)c3cccc4cccnc34)CC2)c1 (centres undefined),> 100 µM (inactive)
13,Cc1ccc(N2C(=O)NC(NS(=O)(=O)c3ccccc3)(C(F)(F)F)C2=O)cc1C (centres undefined),> 100 µM (inactive)
14,COc1ccc(OC)c(S(=O)(=O)Nc2cccc3ccccc23)c1,> 100 µM (inactive)
15,CCOC(=O)c1cccc(OS(=O)(=O)Cc2ccccc2)c1,> 100 µM (inactive)
16,CCCc1c(C(=O)Nc2ccc(OC)cc2)cnn1-c1ccccc1,> 100 µM (inactive)
17,O=C(Nc1ccc2nc(-c3ccccc3)[nH]c2c1)c1cccs1,> 100 µM (inactive)
18,CN(C)CCCNc1ccc(-c2cc(Nc3cccc(Cl)c3)ncn2)cn1,> 100 µM (inactive)
19,O=C(CCC(=O)N1CCN(c2ccc(F)cc2)CC1)N1CCN(c2ccc(F)cc2)CC1,> 100 µM (inactive)
20,Cc1ccsc1C(=O)OCC(=O)N1CCc2ccccc2C1,> 100 µM (inactive)
21,COc1ccc2c(c1)c(C(C)=O)c(C)n2CCc1ccc(OC)c(OC)c1,> 100 µM (inactive)
22,O=C1NC(=O)C2(Cc3cc([N+](=O)[O-])ccc3N3CCN(C(=O)c4ccccc4)CC32)C(=O)N1 (centres undefined),> 100 µM (inactive)
23,O=C(Cc1coc2ccc3ccccc3c12)NCc1ccccc1,> 100 µM (inactive)

row,Structure (SMILES),AC50
1,O=C(Cc1cccc(NC(=O)C2CCN(C(=O)CCc3ccccc3)CC2)c1)Nc1cccc(C(=O)N2CCCC2)c1,> 100 µM (inactive)
2,Cc1cccc(CN2C(=O)c3ccccc3Sc3ccc(C(=O)O)cc32)c1,> 100 µM (inactive)
3,COc1cc(NC(=O)C(c2ccccc2)c2ccccc2)c(C(=O)O)cc1OC,> 100 µM (inactive)
4,O=C(Nc1ccc2c(c1)OCO2)c1ccc([N+](=O)[O-])cc1[N+](=O)[O-],> 100 µM (inactive)
5,Cc1ccc(C(=O)Nc2cccc(N(C)S(C)(=O)=O)c2)cc1S(=O)(=O)Nc1ccccc1,> 100 µM (inactive)
6,COC(=O)c1ccc(CN2CCCC(CO)(Cc3ccccc3F)C2)cc1 (centres undefined),> 100 µM (inactive)
7,O=C(Nc1ccc2c(c1)OCCO2)c1cccnc1Oc1ccc(Cl)cc1,> 100 µM (inactive)
8,CCCCn1c(NS(=O)(=O)c2ccc(C)cc2)c(C(=O)OCC)c2nc3ccccc3nc21,> 100 µM (inactive)
9,N#Cc1ccc(C(=O)Nc2ccn(-c3ccccc3)n2)cc1,> 100 µM (inactive)
10,COc1ccc(N2C(=O)C3C(C2=O)C3(c2ccccc2)c2ccccc2)cc1 (centres undefined),> 100 µM (inactive)
11,S=c1[nH]nc(-c2ccc3ccccc3n2)n1-c1ccc2c(c1)OCCO2,> 100 µM (inactive)
12,O=C(Nc1cccc(-c2cn3ccccc3n2)c1)c1ccccc1,> 100 µM (inactive)
13,Cc1ccccc1OCC(O)Cn1c(NCc2ccco2)nc2c1c(=O)n(C)c(=O)n2C (centres undefined),> 100 µM (inactive)
14,CC(=O)Oc1ccc(N(C(C)=O)S(=O)(=O)c2ccc(C)cc2)c2ccccc12,> 100 µM (inactive)
15,O=C1CCCN1CCCNc1ncnc2c1[nH]c1ccc(Cl)cc12,> 100 µM (inactive)
16,Cc1cccc(OCCC(=O)N(C)CC(=O)Nc2cccc3ccccc23)c1,> 100 µM (inactive)
17,O=C(Nc1ccc(S(=O)(=O)N2CCCC2)cc1)c1ccc(OCC2CCCO2)cc1 (centres undefined),> 100 µM (inactive)
18,COc1ccc(NS(=O)(=O)c2ccc(Cl)c(NC(=O)c3ccccc3F)c2)cc1,> 100 µM (inactive)
19,COc1ccccc1NC(=O)CSc1nccn1Cc1ccc(F)cc1,> 100 µM (inactive)
20,Cc1nnn(C23C[C@@H]4C[C@@H](CC(C(=O)N5CCN(c6ccccc6)CC5)(C4)C2)C3)n1,> 100 µM (inactive)
21,COCCCn1c(C)cc(C(=O)COC(=O)CCc2nc3ccccc3c(=O)[nH]2)c1C,> 100 µM (inactive)
22,C=CCN(c1ccccc1)S(=O)(=O)c1cccc2cccnc12,> 100 µM (inactive)
23,O=C1c2ccccc2C(=O)N1CCc1c[nH]c2ccccc12,> 100 µM (inactive)

row,Structure (SMILES),AC50
1,CCc1nc2ccccc2n1CCc1ccccc1,> 100 µM (inactive)
2,O=S(=O)(c1ccc(Cl)cc1)N1CCN=C1SCc1cccc(Cl)c1,> 100 µM (inactive)
3,CCOc1ccc(OCc2cccc(C(=O)O)c2)cc1,> 100 µM (inactive)
4,CC1Sc2ccc(S(=O)(=O)NCc3ccccc3)cc2NC1=O (centres undefined),> 100 µM (inactive)
5,CC1(C(=O)NS(=O)(=O)c2ccc3c(c2)CCO3)CCN1C(=O)c1ccccc1CCc1ccccc1 (centres undefined),> 100 µM (inactive)
6,COc1ccccc1-c1ccc(SCc2ccc(F)cc2)nn1,> 100 µM (inactive)
7,Cc1ccccc1S(=O)(=O)c1cc2ccccc2nc1N,> 100 µM (inactive)
8,CCOC(=O)c1cnc2c(ccc3ccccc32)c1NCCCN(C)C,> 100 µM (inactive)
9,COc1ccccc1Cn1c(=S)[nH]c2ccc(F)cc2c1=O,> 100 µM (inactive)
10,COc1ccc(-c2cc(C(=O)N3CCc4ccccc4C3)no2)cc1,> 100 µM (inactive)
11,CC(=O)N1CCOc2ccc(S(=O)(=O)N(C)c3ccc(C)cc3)cc21,> 100 µM (inactive)
12,CC(C)C[C@@H](CSc1ccccc1)N1CCN(CC(C)C)CCC1=O,> 100 µM (inactive)
13,CCOC(=O)C1CCCN(C(=O)c2csc(-c3ccc4c(c3)CCO4)n2)C1 (centres undefined),> 100 µM (inactive)
14,O=C(O)c1ccc(Oc2ccc([N+](=O)[O-])cc2)c([N+](=O)[O-])c1,> 100 µM (inactive)
15,CC(=O)c1cccc(NC(=O)COC(=O)CCC(=O)c2ccc(F)cc2)c1,> 100 µM (inactive)
16,CC(=O)OC1N=C(c2ccccc2Cl)c2cc(Br)ccc2NC1=O (centres undefined),> 100 µM (inactive)
17,CN1C(=O)c2ccccc2OC1(C)Cc1ccccc1 (centres undefined),> 100 µM (inactive)
18,CCN(CC)S(=O)(=O)c1cccc(NC(=O)CNc2cccc(S(=O)(=O)N3CCCC3)c2)c1,> 100 µM (inactive)
19,COc1ccccc1CNC(=O)CSc1ccc(C)cc1,> 100 µM (inactive)
20,Cc1cccc(S(=O)(=O)NC(=O)C2(C)CCN2C(=O)c2ccccc2CCc2ccccc2)c1 (centres undefined),> 100 µM (inactive)
21,COc1ccc(OC)c(-c2nnc3n2N=C(c2ccc(OC)c(OC)c2)CS3)c1,> 100 µM (inactive)
22,COc1ccc(OC2C(=O)N(Cc3ccc4c(c3)OCO4)C2c2sccc2C)cc1 (centres undefined),> 100 µM (inactive)
23,CC1CCCN(C(=O)C(C)Nc2cc(Cl)ccc2N2CCOCC2)C1 (centres undefined),> 100 µM (inactive)
